Data from PubChem BioAssay (NCI).
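The concentration for 50% growth inhibition is given as GI50. TGI: total growth inhibition.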

Legend:
Test in all cases: inhibition of tumour cell growth, NCI panel, 384-well format
[1] = system: 786-0 renal
[2] = system: A498 renal
[3] = system: A549 NSCLC
[4] = system: ACHN renal
[5] = system: BT-549 breast
[6] = system: CAKI-1 renal
[7] = system: COLO 205 colon
[8] = system: DU-145 prostate
[9] = system: EKVX NSCLC
[10] = system: HCT-116 colon
[11] = system: HCT-15 colon
[12] = system: HL-60(TB) leukemia
[13] = system: HOP-62 NSCLC
[14] = system: HOP-92 NSCLC
[15] = system: HS 578T breast
[16] = system: IGROV1 ovarian
[17] = system: KM12 colon
[18] = system: LOX IMVI melanoma
[19] = system: M14 melanoma
[20] = system: MALME-3M melanoma
[21] = system: MCF7 breast
[22] = system: MDA-MB-231 breast
[23] = system: MDA-MB-435 melanoma
[24] = system: MDA-MB-468 breast
[25] = system: MOLT-4 leukemia
[26] = system: NCI-H226 lung
[27] = system: NCI-H23 lung

Question: Which results are given for C=CC(=O)N1CCCC(n2nc(-c3ccc(Oc4ccccc4)cc3)c3c(N)ncnc32)C1 (centres undefined)?
Answer: GI50 [1]: 3.78 µM; TGI [1]: 17.4 µM; GI50 [2]: 11.5 µM; TGI [2]: 23.7 µM; GI50 [3]: 12.1 µM; TGI [3]: 24.5 µM; GI50 [4]: 0.655 µM; TGI [4]: 17.3 µM; GI50 [5]: 3.59 µM; TGI [5]: 13.3 µM; GI50 [6]: 6.76 µM; TGI [6]: 19.6 µM; GI50 [7]: 18.9 µM; TGI [7]: 33 µM; GI50 [8]: 4.16 µM; TGI [8]: 19.2 µM; GI50 [9]: 0.316 µM; TGI [9]: 16.7 µM; GI50 [10]: 15.3 µM; TGI [10]: 28.8 µM; GI50 [11]: 12.6 µM; TGI [11]: 25.3 µM; GI50 [12]: 15.9 µM; TGI [12]: 29.4 µM; GI50 [13]: 15.2 µM; TGI [13]: 28.6 µM; GI50 [14]: 13.6 µM; TGI [14]: 26.5 µM; GI50 [15]: 6.88 µM; TGI [15]: 19.5 µM; GI50 [16]: 0.114 µM; TGI [16]: 5.9 µM; GI50 [17]: 14.5 µM; TGI [17]: 27.7 µM; GI50 [18]: 4.43 µM; TGI [18]: 19.3 µM; GI50 [19]: 11.1 µM; TGI [19]: 23.2 µM; GI50 [20]: 13.5 µM; TGI [20]: 26.4 µM; GI50 [21]: 10.3 µM; TGI [21]: 22.1 µM; GI50 [22]: 16.2 µM; TGI [22]: 29.8 µM; GI50 [23]: 17.2 µM; TGI [23]: 31.1 µM; GI50 [24]: 0.0226 µM; TGI [24]: 0.239 µM; GI50 [25]: 1.32 µM; TGI [25]: 5.02 µM; GI50 [26]: 6.21 µM; TGI [26]: 19.3 µM; GI50 [27]: 16.3 µM; TGI [27]: 29.9 µM
